Results: patent US6552080B1, “Fungicidal compounds having a fluorovinyl-or fluoropropenyl-oxyphenyloxime moiety and process for the preparation thereof” (Korea Research Institute of Chemical Technology, priority 1999, dated 2003)
Where two headings read alike, the source gives them in different places.

Experiments:
[1] = tested on: Phytophthora infestans; format: in vivo; conditions: for TLB (Fungicidal Activities, C.V.): Tomato Late Blight, concentration 50 ppm
[2] = tested on: Puccinia recondita; experiment: Fungicidal activity against Wheat Leaf Rust (WLR) disease; format: in vivo; conditions: for WLR (Fungicidal Activities, C.V.): Wheat Leaf Rust
[3] = tested on: Botrytis cinerae; experiment: Fungicidal activity against Cucumber Gray Mold Rot (CGM) disease; format: in vivo; conditions: for CGM (Fungicidal Activities, C.V.): Cucumber Gray Mold Rot, concentration 50 ppm; for Fungicidal Activities CGM (C.V.): 50 ppm
[4] = tested on: Erysiphae graminis; experiment: Fungicidal activity against Barley Powdery Mildew (BPM) disease; format: in vivo; conditions: for BPM (Fungicidal Activities, C.V.): Barley Powdery Mildew
[5] = tested on: Rhizoctonia solani AG-1; experiment: Fungicidal activity against Rice Sheath Blight (RSB) disease; conditions: for RSB (Fungicidal Activities, C.V.): Rice Sheath Blight
[6] = tested on: Pyricularia oryzae Carvara KA301; format: in vivo; conditions: for RCV (Fungicidal Activities, C.V.): Rice Blast

CON=C(C(=O)OC)c1ccccc1CON=Cc1cccc(OC(F)=C(c2ccc(F)cc2)C(F)(F)F)c1 [Compound 135]
TLB (Fungicidal Activities, C.V.) [1]: 0% | WLR (Fungicidal Activities, C.V.) ([2]; concentration 2 ppm): 94% | WLR (Fungicidal Activities, C.V.) ([2]; concentration 50 ppm): 100% | CGM (Fungicidal Activities, C.V.) [3]: 71% | BPM (Fungicidal Activities, C.V.) ([4]; concentration 2 ppm): 93% | BPM (Fungicidal Activities, C.V.) ([4]; concentration 50 ppm): 100% | RSB (Fungicidal Activities, C.V.) ([5]; concentration 2 ppm): 20% | RSB (Fungicidal Activities, C.V.) ([5]; concentration 50 ppm): 61% | RCV (Fungicidal Activities, C.V.) ([6]; concentration 2 ppm): 43% | RCV (Fungicidal Activities, C.V.) ([6]; concentration 50 ppm): 86%

CON=C(C(=O)OC)c1ccccc1CON=C(C)c1cccc(OC(F)=C(c2ccc(Cl)cc2)C(F)(F)F)c1 [Compound 185]
Fungicidal Activities TLB (C.V.) ([1]; 2 ppm): 25% | Fungicidal Activities TLB (C.V.) ([1]; 50 ppm): 50% | Fungicidal Activities WLR (C.V.) ([2]; 2 ppm): 95% | Fungicidal Activities WLR (C.V.) ([2]; 50 ppm): 100% | Fungicidal Activities CGM (C.V.) [3]: 0% | Fungicidal Activities BPM (C.V.) ([4]; 2 ppm): 98% | Fungicidal Activities BPM (C.V.) ([4]; 50 ppm): 100% | Fungicidal Activities RSB (C.V.) ([5]; 2 ppm): 25% | Fungicidal Activities RSB (C.V.) ([5]; 50 ppm): 75% | Fungicidal Activities RCV (C.V.) ([6]; 2 ppm): 73% | Fungicidal Activities RCV (C.V.) ([6]; 50 ppm): 96%

CON=C(C(=O)OC)c1ccccc1CON=C(c1cccc(OC(F)=Cc2ccccc2)c1)C(F)(F)F [Compound 102]
TLB (Fungicidal Activities, C.V.) [1]: 0% | WLR (Fungicidal Activities, C.V.) ([2]; concentration 2 ppm): 94% | WLR (Fungicidal Activities, C.V.) ([2]; concentration 10 ppm): 96% | WLR (Fungicidal Activities, C.V.) ([2]; concentration 50 ppm): 99% | CGM (Fungicidal Activities, C.V.) [3]: 23% | BPM (Fungicidal Activities, C.V.) ([4]; concentration 2 ppm): 97% | BPM (Fungicidal Activities, C.V.) ([4]; concentration 10 ppm): 100% | BPM (Fungicidal Activities, C.V.) ([4]; concentration 50 ppm): 100% | RSB (Fungicidal Activities, C.V.) ([5]; concentration 50 ppm): 50% | RCV (Fungicidal Activities, C.V.) ([6]; concentration 2 ppm): 71% | RCV (Fungicidal Activities, C.V.) ([6]; concentration 10 ppm): 86% | RCV (Fungicidal Activities, C.V.) ([6]; concentration 50 ppm): 99%

CNC(=O)C(=NOC)c1ccccc1CON=Cc1cccc(OC(F)=Cc2cccc(Cl)c2)c1 [Compound 38]
TLB (Fungicidal Activities, C.V.) [1]: 0% | WLR (Fungicidal Activities, C.V.) ([2]; concentration 2 ppm): 99% | WLR (Fungicidal Activities, C.V.) ([2]; concentration 50 ppm): 100% | CGM (Fungicidal Activities, C.V.) [3]: 0% | BPM (Fungicidal Activities, C.V.) ([4]; concentration 2 ppm): 87% | BPM (Fungicidal Activities, C.V.) ([4]; concentration 50 ppm): 100% | RSB (Fungicidal Activities, C.V.) ([5]; concentration 50 ppm): 64% | RCV (Fungicidal Activities, C.V.) ([6]; concentration 2 ppm): 97% | RCV (Fungicidal Activities, C.V.) ([6]; concentration 50 ppm): 100%

COC=C(C(=O)OC)c1ccccc1CON=C(C)c1cccc(OC(F)=C(c2cccc(F)c2)C(F)(F)F)c1 [Compound 159]
TLB (Fungicidal Activities, C.V.) [1]: 20% | WLR (Fungicidal Activities, C.V.) ([2]; concentration 2 ppm): 94% | WLR (Fungicidal Activities, C.V.) ([2]; concentration 10 ppm): 100% | WLR (Fungicidal Activities, C.V.) ([2]; concentration 50 ppm): 100% | CGM (Fungicidal Activities, C.V.) [3]: 52% | BPM (Fungicidal Activities, C.V.) ([4]; concentration 2 ppm): 99% | BPM (Fungicidal Activities, C.V.) ([4]; concentration 10 ppm): 100% | BPM (Fungicidal Activities, C.V.) ([4]; concentration 50 ppm): 100% | RSB (Fungicidal Activities, C.V.) ([5]; concentration 50 ppm): 65% | RCV (Fungicidal Activities, C.V.) ([6]; concentration 2 ppm): 25% | RCV (Fungicidal Activities, C.V.) ([6]; concentration 10 ppm): 91% | RCV (Fungicidal Activities, C.V.) ([6]; concentration 50 ppm): 96%

CON=C(C(=O)OC)c1ccccc1CON=C(C)c1cccc(OC(F)=C(c2ccc(Br)cc2)C(F)(F)F)c1 [Compound 187]
Fungicidal Activities TLB (C.V.) ([1]; 2 ppm): 25% | Fungicidal Activities TLB (C.V.) ([1]; 50 ppm): 0% | Fungicidal Activities WLR (C.V.) ([2]; 2 ppm): 95% | Fungicidal Activities WLR (C.V.) ([2]; 50 ppm): 100% | Fungicidal Activities CGM (C.V.) [3]: 0% | Fungicidal Activities BPM (C.V.) ([4]; 2 ppm): 97% | Fungicidal Activities BPM (C.V.) ([4]; 50 ppm): 98% | Fungicidal Activities RSB (C.V.) ([5]; 2 ppm): 20% | Fungicidal Activities RSB (C.V.) ([5]; 50 ppm): 85% | Fungicidal Activities RCV (C.V.) ([6]; 2 ppm): 97% | Fungicidal Activities RCV (C.V.) ([6]; 50 ppm): 83%

COC=C(C(=O)OC)c1ccccc1CON=C(C)c1cccc(OC(F)=Cc2ccc(Cl)cc2)c1 [Compound 54]
TLB (Fungicidal Activities, C.V.) [1]: 84% | WLR (Fungicidal Activities, C.V.) ([2]; concentration 2 ppm): 97% | WLR (Fungicidal Activities, C.V.) ([2]; concentration 10 ppm): 100% | WLR (Fungicidal Activities, C.V.) ([2]; concentration 50 ppm): 100% | CGM (Fungicidal Activities, C.V.) [3]: 51% | BPM (Fungicidal Activities, C.V.) ([4]; concentration 2 ppm): 99% | BPM (Fungicidal Activities, C.V.) ([4]; concentration 10 ppm): 100% | BPM (Fungicidal Activities, C.V.) ([4]; concentration 50 ppm): 100% | RSB (Fungicidal Activities, C.V.) ([5]; concentration 2 ppm): 50% | RSB (Fungicidal Activities, C.V.) ([5]; concentration 10 ppm): 80% | RSB (Fungicidal Activities, C.V.) ([5]; concentration 50 ppm): 90% | RCV (Fungicidal Activities, C.V.) ([6]; concentration 2 ppm): 97% | RCV (Fungicidal Activities, C.V.) ([6]; concentration 10 ppm): 99% | RCV (Fungicidal Activities, C.V.) ([6]; concentration 50 ppm): 100%

COC=C(C(=O)OC)c1ccccc1CON=C(c1cccc(OC(F)=Cc2ccc(C)cc2)c1)C(F)(F)F [Compound 85]
TLB (Fungicidal Activities, C.V.) [1]: 0% | WLR (Fungicidal Activities, C.V.) ([2]; concentration 10 ppm): 93% | WLR (Fungicidal Activities, C.V.) ([2]; concentration 50 ppm): 96% | CGM (Fungicidal Activities, C.V.) [3]: 7% | BPM (Fungicidal Activities, C.V.) ([4]; concentration 10 ppm): 92% | BPM (Fungicidal Activities, C.V.) ([4]; concentration 50 ppm): 99% | RSB (Fungicidal Activities, C.V.) ([5]; concentration 50 ppm): 40% | RCV (Fungicidal Activities, C.V.) ([6]; concentration 10 ppm): 16% | RCV (Fungicidal Activities, C.V.) ([6]; concentration 50 ppm): 93%

CON=C(C(=O)OC)c1ccccc1CON=C(C)c1cccc(OC(F)=Cc2cccc(C)c2)c1 [Compound 65]
TLB (Fungicidal Activities, C.V.) [1]: 0% | WLR (Fungicidal Activities, C.V.) ([2]; concentration 2 ppm): 99% | WLR (Fungicidal Activities, C.V.) ([2]; concentration 10 ppm): 100% | WLR (Fungicidal Activities, C.V.) ([2]; concentration 50 ppm): 100% | CGM (Fungicidal Activities, C.V.) [3]: 71% | BPM (Fungicidal Activities, C.V.) ([4]; concentration 2 ppm): 99% | BPM (Fungicidal Activities, C.V.) ([4]; concentration 10 ppm): 100% | BPM (Fungicidal Activities, C.V.) ([4]; concentration 50 ppm): 100% | RSB (Fungicidal Activities, C.V.) ([5]; concentration 2 ppm): 30% | RSB (Fungicidal Activities, C.V.) ([5]; concentration 10 ppm): 60% | RSB (Fungicidal Activities, C.V.) ([5]; concentration 50 ppm): 100% | RCV (Fungicidal Activities, C.V.) ([6]; concentration 2 ppm): 100% | RCV (Fungicidal Activities, C.V.) ([6]; concentration 10 ppm): 100% | RCV (Fungicidal Activities, C.V.) ([6]; concentration 50 ppm): 100%
